Patent publication US11401255B2, “Small molecule activators of Parkin enzyme function” (Mayo Foundation for Medical Education and Research, priority 2016, dated 2022)

How the values were obtained:
Parkin = Parkin (Homo sapiens (Human), UniProt O60260); assay: Parkin substrates and pS65-Ub western blot in HeLa cells stably expressing untagged Parkin; format: cell-based; settings: 5 μM, 2 h, then 3.5 μM CCCP
Method: (§1) HeLa cells stably expressing untagged Parkin were left untreated or pre-treated with 5 μM of Compounds 1, 2, 3, 4, and 31 for 2 h and treated without (−) or with (+) low dose CCCP (3.5 μM CCCP). As a positive control (PC), some cells were treated with 10 μM CCCP. Lysates were loaded onto 8-16% Tris-Glycine gels, blotted onto membranes and probed with antibodies against Parkin substrates.
as §1, with “The” for “As a”, “(PC) was” for “(PC), some cells were”, “CCCP for 2 h.” for “CCCP.”, “pS65-Ub.” for “Parkin substrates.”
Cells were harvested in RIPA buffer or NP-40 lysis buffer containing protease and phosphatase inhibitors (Complete and PhosStop, Roche Applied Science) with the exception of Parkin Ub charging experiments where preheated (95° C.) SDS lysis buffer (50 mM Tris pH 7.6, 150 mM NaCl, 1% SDS) was used. Concentration of cell lysates was determined with bicinchoninic acid (Pierce Biotechnology). For Parkin Ub charging experiments, aliquots of lysates were treated with […] for 1 h at 37° C. pH was neutralized with equinormal HCl.
Protein was subjected to SDS-PAGE using 4-20% or 8-16% Tris-Glycine gels (Invitrogen) and transferred onto polyvinylidene fluoride (PVDF) (Millipore). Membranes were incubated with primary antibodies overnight at 4° C. followed by HRP-conjugated secondary antibodies (1:10,000; Jackson ImmunoResearch Laboratories). Primary antibodies used: beta III tubulin (rabbit, 1:1000, CST, #5568, CST), FLAG (mouse, 1:250,000, Sigma, F3165), GAPDH (mouse, 1:100,000-500,000, Meridian Life science, H86504M), GST (1:10,000, Sigma, G7781), MFN1 (mouse, 1:5,000, Abcam, ab57602), MFN2 (mouse, 1:5,000, Abcam, ab56889), Parkin (mouse, 1:2,000, Cell Signaling, #4211), pSer65-Ub (rabbit, 1:15,000, in-house (Fiesel et al., EMBO Reports (2015) 16:1114-30; Fiesel et al., (2015) Autophagy 11:2125-2126)), TOM70 (rabbit, 1:5,000, Proteintech, 14528-1-AP), UBE2L3 (rabbit, 1:10,000, ProteinTech, 14415-1-AP), VDAC1 (mouse, 1:5,000, Abcam, ab14734), vinculin (mouse, 1:100,000, Sigma, V9131).
As readout for its activation, a catalytic site mutant that can be used to trap Ub-charged Parkin was employed. […] To further validate effects on enhanced activation, we used HeLa cells expressing untagged native Parkin. PC treatment with 10 μM CCCP induced pSer65-Ub signals and the complete degradation of some substrates (e.g., Mitofusins) while the most abundant, VDAC1, was still ubiquitylated (FIG. 8). Similar effects were seen when cells had been pre-incubated with 5 μM of compound before a low dose CCCP, which had no effect on its own.

HepG2 cells = assay: Cytotoxicity assay (resazurin), HepG2 cell proliferation inhibition; format: cell-based; settings: Homo sapiens, 24 hours
Method: Compounds 1-4 and 31 were tested in a cytotoxicity assay. The assay was based on the conversion of the non-fluorescent dye resazurin to the fluorescent compound rezorufin in the reducing environment of living cell cytoplasm. The more living cells in a sample result in higher fluorescence, while less living cells result in lower fluorescence.
HepG2 cells were cultivated in a humidified atmosphere at 37° C. and 5% CO2 in 75 cm^2 flasks to 80-90% of confluence and split twice per week with a subcultivation ratio of 1:4. The cell layer was rinsed with PBS to remove all traces of serum. Then 3.0 mL of solution containing 0.25% (w/v) trypsin and 0.53 mM EDTA was added to the flask and incubated about 10 minutes. The HepG2 cells were detached using a scraper and re-suspended in DMEM containing 10% FBS and 2 mM glutamine. The cell suspension with a final concentration of 5×10^5 cells/mL was dispensed into sterile 96-well black wall clear flat bottom plates as previously described (McMillian et al. (2002) Cell Biol. Toxicol. 18(3):157-173; Mulvihill et al. (2009) Future Med. Chem. 1(6):1153-1171) and the test compounds were added.
The compound DMSO stock solutions were diluted with PBS to achieve an intermediate concentration of 1 mM. The cell proliferation assessment was performed at different concentrations of compounds ranging from 0.1 μM to 100 μM. Doxorubicin at a final concentration of 20 μM was used as a positive control. After compound addition, cells were incubated for 24 hours in a humidified atmosphere at 37° C. and 5% CO2.
Resazurin was added to the final concentration (50 μM) and incubated for 4 hours under the same conditions. Presence of rezorufin (cell viability) was quantified by measuring fluorescence (Ex—490 nm, Em—540 nm; see Vega-Avila and Pugsley (2011) Proc. West Pharmacol. Soc. 54:10-14).
The percent of cell proliferation inhibition was calculated by applying the following formula: […]

Chain of Parkin (O60260 whole entry): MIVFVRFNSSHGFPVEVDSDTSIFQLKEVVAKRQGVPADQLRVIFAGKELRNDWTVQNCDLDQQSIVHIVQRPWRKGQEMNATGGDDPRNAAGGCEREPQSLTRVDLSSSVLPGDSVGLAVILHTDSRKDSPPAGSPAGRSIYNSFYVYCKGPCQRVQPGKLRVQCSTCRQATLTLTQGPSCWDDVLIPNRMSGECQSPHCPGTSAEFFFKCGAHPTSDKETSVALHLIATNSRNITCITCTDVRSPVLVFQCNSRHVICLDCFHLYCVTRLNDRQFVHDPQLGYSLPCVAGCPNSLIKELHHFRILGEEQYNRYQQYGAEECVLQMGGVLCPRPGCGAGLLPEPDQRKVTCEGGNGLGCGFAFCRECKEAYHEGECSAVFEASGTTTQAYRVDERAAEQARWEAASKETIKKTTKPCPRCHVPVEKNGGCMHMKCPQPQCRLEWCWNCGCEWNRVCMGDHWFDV

| SMILES | Parkin substrate levels (ubiquitination and degradation) (Parkin) | pS65-Ub signal (western blot) (Parkin) | inhibition at 0.1 µM (HepG2 cells) [%] | inhibition at 0.3 µM (HepG2 cells) [%] | inhibition at 1 µM (HepG2 cells) [%] | inhibition at 3 µM (HepG2 cells) [%] | inhibition at 10 µM (HepG2 cells) [%] | inhibition at 30 µM (HepG2 cells) [%] | inhibition at 100 µM (HepG2 cells) [%] |
| --- | --- | --- | --- | --- | --- | --- | --- | --- | --- |
| O=C(Cn1cnc2c1CCCC2)Nc1ccc(-c2ccccc2)cc1 [Compound 1] | reduced substrate levels | robust induction of pS65-Ub | -0.1 | -2 | -0.6 | -1.8 | -3.9 | -2.5 | 0.1 |
| CC(C)c1nccn1CC(=O)Nc1ccc(-c2ccccc2)cc1 [Compound 2] | reduced substrate levels | robust induction of pS65-Ub | -1.8 | 2.8 | 1.2 | 5.6 | 2.6 | 2.4 | 14.7 |
| CC(C)(C)Sc1ccc(NC(=O)Cn2ccnc2)cc1 [Compound 3] | reduced substrate levels | robust induction of pS65-Ub | -2.1 | 0.2 | 2.4 | 3.9 | 2.6 | -0.1 | 0.5 |
| O=C(Cn1ccnc1-c1ccccn1)Nc1ccc(-c2ccccc2)cc1 [Compound 4] | reduced substrate levels | robust induction of pS65-Ub | -1.8 | 0.1 | 0.8 | 5.4 | -1.4 | -3.8 | -5.5 |
| Cc1nc2c(c(N3CCCN(Cc4ccccc4)CC3)n1)CCCC2 [Compound 31] | reduced substrate levels | robust induction of pS65-Ub | 2 | -0.8 | -1.5 | -0.9 | -2.2 | -5.4 | -17.7 |
